Legend:
[1] = Metabolic stability in mouse liver S9 fraction; format: in vitro ADME
[2] = test system: zebrafish embryos; experiment: Zebrafish embryo toxicity
Description: Zebrafish embryo toxicity. The experiment was performed according to a procedure described
in the literature55 with minor modifications using zebrafish embryos of the AB wild-type line at 1
day post fertilization (dpf).
Zebrafish embryo toxicity.

[3] = molecular target: T1, TACE (Homo sapiens, UniProt P78536); experiment: TACE inhibitor screening kit; format: biochemical; conditions: read-out: % inhibition TACE
T1 construct: purchased Sigma-Aldrich (Saint Louis, MO)

[4] = test system: Galleria mellonella larvae infected with wt PA14; experiment: G. mellonella infection model
[5] = Microsomal stability, rat liver microsomes; format: in vitro ADME; conditions: Wistar, pooled liver microsomes
[6] = Microsomal stability, minipig liver microsomes; format: in vitro ADME; conditions: Göttingen, pooled liver microsomes
[7] = test system: 3D lung organoids; experiment: Lung organoid assay; format: cell-based, human

T1 sequence (P78536 215-824): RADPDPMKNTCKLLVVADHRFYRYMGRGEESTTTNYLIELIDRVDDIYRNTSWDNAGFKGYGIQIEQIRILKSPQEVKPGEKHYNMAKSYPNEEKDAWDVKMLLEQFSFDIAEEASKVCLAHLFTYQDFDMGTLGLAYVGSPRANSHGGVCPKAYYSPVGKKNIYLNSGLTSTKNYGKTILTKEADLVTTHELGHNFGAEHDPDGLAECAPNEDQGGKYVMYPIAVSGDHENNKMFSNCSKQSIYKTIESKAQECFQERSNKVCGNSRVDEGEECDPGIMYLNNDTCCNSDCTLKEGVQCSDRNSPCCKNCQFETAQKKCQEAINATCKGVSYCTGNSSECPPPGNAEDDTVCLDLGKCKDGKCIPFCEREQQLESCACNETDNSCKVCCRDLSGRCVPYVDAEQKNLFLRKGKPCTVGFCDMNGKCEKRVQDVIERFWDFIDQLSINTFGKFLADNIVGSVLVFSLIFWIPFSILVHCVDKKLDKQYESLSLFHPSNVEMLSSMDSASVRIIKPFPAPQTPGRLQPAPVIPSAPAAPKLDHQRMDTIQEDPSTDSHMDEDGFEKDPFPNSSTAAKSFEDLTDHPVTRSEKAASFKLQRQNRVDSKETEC

Q: What does the source list for `CC(C)CC(C(=O)Nc1ccc(C(F)(F)F)cc1)P(=O)(O)O` (centres unmarked) [Compound 4b]?
A: microsomal CLint at 1 μM [1]: < 5.8 µL/min/mg; Survival rate ([2]; 12.5 µM): 100%; Survival rate ([2]; 25 µM): 100%; Screening observations ([2]; 25 µM, 5 dpf): 1 nsb; Survival rate ([2]; 50 µM): 100%; Screening observations ([2]; 50 µM, 5 dpf): 2 nsb; Survival rate ([2]; 100 μM): 100%; Screening observations ([2]; 100 µM, 3 dpf): 1 edema; Screening observations ([2]; 100 µM, 4 dpf): 1 edema; Screening observations ([2]; 100 µM, 5 dpf): 1 nsb, 1 edema; inhibition at 100 µM [3]: < 10%; survival of larvae infected with wt PA14 ([4]; 1 nmol 4b, 10.7 nmol tobramycin, or both, 17% in the wild type): 33%; survival in the PBS treated groups (not infected) ([4]; PBS with 4b, tobramycin or combination of both): 100%; microsomal CLint [5]: < 11.6 µL/min/mg; microsomal CLint [6]: < 11.6 µL/min/mg; viability of lung organoids challenged with 5% PA14 csn ([7]; 5% PA14 csn, 48 h, MTT): improved in a dose-dependent manner; toxic effects on nontreated lung organoids ([7]; concentrations tested up to 100 μM): did not have significant toxic effects
